Test system: HSCs
Assay: N-Acetyl-Cystein (NAC) feeding of plpC-treated Gfi1b^fl/fl and MxCre tg Gfi1b^fl/fl mice; hematological compartments and HSC numbers by flow cytometry
Assay type: in vivo
Details: for Number of HSCs in BM NAC treatment / % Lin^− cells in BM NAC treatment / Number of BM cells × 10^6 NAC treatment / Number of HSCs in Spleen NAC treatment / Number of HSCs per 1 ml blood NAC treatment / Number of Lin^− cells × 10^6 NAC treatment / Number of splenocytes × 10^6 NAC treatment: plpC-treated, fed daily with N-Acetyl-Cystein, mean ± SEM
Description: Treatment. MxCre tg Gfi1^fl/fl or Gfi1b^fl/fl mice were injected with polyinosinic-polycytidylic acid (plpC) (Sigma-Aldrich) at a dose of 500 μg per injection every other day for a total of 5 injections. As control, wt or Gfi1b^fl/fl mice not carrying the MxCre tg were injected with plpC. With regard to N-Acetyl-Cystein (Sigma-Aldrich, Mississagua) treatment, mice were fed every day with 500 μl N-Acety-Cystein (50 mg/ml)
Flow cytometry analysis, sorting of HSC and progenitors. HSCs and progenitors were analyzed with a LSR™, or Cyan flow cytometers and HSC were sorted with a MoFlo™ from adult mouse bone marrow as described previously (Kiel et al., 2005, supra; Adolfsson J et al., Cell 2005; 121:295-306). The BrdU experiments and the determination of cell cycle phases by Hoechst staining was done according to described procedures (Wilson et al., 2005, supra). Reactive oxygen species (ROS) were analyzed by staining HSCs with 5-(and-6)-carboxy-2′,7′-dichlorodihydrofluorescein diacetate (carboxy-H2DCFDA) (Invitrogen, Burlington, Canada) for 30 min at 37° C. After staining, cells were analyzed by flow cytometry for level of ROS in HSCs.
To verify whether loss of Gfi1b activates HSCs and that this activation leads to increased level of ROS which in turn could lead to an expansion of HSCs, mice were fed with N-Acetyl-Cystein (NAC), which counteracts the effects of ROS (Ito K, et al. Nat Med. April 2006; 12(4):446-451).

[1] = Gfi1b^fl/fl Mx-Cre tg (Gfi1b deficient) mice
[2] = Gfi1b^fl/fl Mx-Cre tg vs Gfi1b^fl/fl, both NAC treated

## CC(=O)N[C@@H](CS)C(=O)O [NAC, N-Acetyl-Cystein]
Gfi1b^fl/fl (wt) mice, HSCs = Lin^−, Sca-1^+, Kit^+, CD150^+, CD48^−
  Number of HSCs in BM NAC treatment: 1700 ± 700,
Gfi1b^fl/fl (wt) mice
  % Lin^− cells in BM NAC treatment: 1.5 ± 0.1, %
  Number of BM cells × 10^6 NAC treatment: 45 ± 4, × 10^6
  Number of HSCs in Spleen NAC treatment: 197 ± 77,
  Number of HSCs per 1 ml blood NAC treatment: 11 ± 1, per 1 ml blood
  Number of Lin^− cells × 10^6 NAC treatment: 0.8 ± 0.1, × 10^6
  Number of splenocytes × 10^6 NAC treatment: 86 ± 22, × 10^6
[1]
  % Lin^− cells in BM NAC treatment: 2.45 ± 0.5, %
  Number of BM cells × 10^6 NAC treatment: 44 ± 2, × 10^6
  Number of HSCs in BM NAC treatment: 5700 ± 1100,
  Number of HSCs in Spleen NAC treatment: 6000 ± 2000,
  Number of HSCs per 1 ml blood NAC treatment: 307 ± 100, per 1 ml blood
  Number of Lin^− cells × 10^6 NAC treatment: 1.1 ± 0.4, × 10^6
  Number of splenocytes × 10^6 NAC treatment: 104 ± 22, × 10^6
[2]
  % Lin^− cells in BM NAC treatment, fold change: 1.6
  Number of BM cells NAC treatment, fold change: 1
  Number of HSCs in BM NAC treatment, fold change: 3
  Number of HSCs in Spleen NAC treatment, fold change: 30
  Number of HSCs per 1 ml blood NAC treatment, fold change: 28
  Number of Lin^− cells NAC treatment, fold change: 1.4
  Number of splenocytes NAC treatment, fold change: 1.2
Bone marrow, spleen and peripheral blood, NAC-treated vs untreated Gfi1b-deficient mice
  Effect on expansion of Gfi1b^ko/ko HSCs (frequencies and absolute numbers): significantly limited the expansion

Source: US20130149311A1, “GFI1B MODULATION AND USES THEREOF” (INSTITUT DE RECHERCHES CLINIQUES DE MONTREAL, priority 2010, published 2013)
